From US7763607B2, “Pharmaceutical compositions comprising CBx cannabinoid receptor modulators and potassium channel modulators” (Solvay Pharmaceuticals GmbH, priority 2006, dated 2010) come the findings set out here.

Where two headings read alike, the source gives them in different places.

For experiment [1], the system named is rat perifused pancreatic islets. Kind of experiment: KATP opening effects through insulin secretion in rat perifused pancreatic islets. As to conditions: insulin secretion at 11 mM glucose; for % Inhibition 0-30: 0-30 minutes; for % Inhibition 30-60: 30-60 minutes. The format is cell-based. As for the experimental part:
The animals were maintained on a 12 h light-dark cycle (lights on 06.00-18.00 h) with free access to standard rodent diet (B&K Universal Ltd standard rat and mouse diet (BK 001P), Beekay Feeds, B&K Universal Ltd, Hull, East Riding of Yorkshire) and tap water. The rats were conditioned to this environment for at least one week before experimentation.
Experimental procedures: After the rats were sacrificed, the branch of the bile duct leading to the liver and the duodenal end of the duct in the pancreas were clamped and the pancreas distended by injection of ice-cold 0.9 mg/ml collagenase solution into the bile duct. […] Following incubation, 10 ml of cold buffer was added and the suspension shaken vigorously by hand for 1 min. The islets were allowed to settle for 5 min on ice and washed three times using ice-cold buffer. Well formed and good sized islets from 3 rats were hand-picked (under a low power microscope) and pooled and a final selection of islet transferred to the perifusion apparatus.
Two experiments were performed in parallel in two identical, independent sets of perifusion apparatus each consisting of sufficient number of chambers. Each chamber was loaded with 20 hand-picked islets. Islets were perifused for an initial 30 min period in media containing 4 mM glucose. Perifusate was then collected at 2 min intervals for the remainder of the experiment. […] Perifusate fractions were stored at −75° C. until required for insulin assay. Insulin content of fractions were assayed using a 96-well ELISA assay (Mercodia). Initial insulin assays were performed in triplicate on three pooled fractions from each chamber.
Data were initially expressed as a simple mean of the three experiments for insulin secretion (pg/islet/min) and multiple t-tests (against the corresponding vehicle time period) used to determine potential significant effects of treatments. Alternatively, data were also calculated as a % vehicle effect for each experimental day.

The test system of experiment [2] is glucose-stimulated insulin release. Kind of experiment: Inhibition of glucose-stimulated insulin release (potency comparison in text). The note with it: relative to diazoxide.
Another experiment addresses rat SUR2 (Rattus norvegicus, UniProt Q63563). The experiment is described as follows: In vitro binding affinity to rodent KATP channels: SUR2 (COS cell membranes). The note with it: rat SUR2 transiently expressed in COS cells; isoform (2A/2B) not given. As for the experimental part:
Similar to SUR1 (see above) competitive binding experiments were performed to characterize the affinity of the test compounds for the binding sites for sulfonylureas and KCOs on rat SUR2A. The affinity for the KCO site on SUR2A was assessed by displacement of [^3H]P1075 (see Schwanstecher et al., 1998; Dörschner H. et al. Mol. Pharmacol. 55 (1999) 1060-1066 (Dörschner et al., 1999)). The affinity of [^3H]glibenclamide for the […] SUR2 isoforms, however, is too weak to allow direct detection of binding using filtration assays. Therefore, two strategies can be used to detect binding to the sulfonylurea site on SUR2A. First, binding can be detected indirectly through allosteric displacement of [^3H]P1075 (Dörschner et al., 1999). Second, a mutated SUR2A (SUR2AY1205S, see above) with increased affinity for [^3H]glibenclamide allowing direct displacement of this tracer can be used.
Membranes from COS-cells transiently expressing rat SUR2A were incubated in the presence of the radioligands with increasing concentrations of test compounds as described above. […] For each test compound […] displacement curves were measured (displacement of [^3H]P1075 from the rat isoform of the wild type receptor and displacement of [^3H]glibenclamide from the rat isoform of SUR2AY1205S). Per curve 9-15 distinct concentrations were tested covering the relevant range. […]

In the next experiment the target is T1, hamster SUR1 (Cricetus cricetus, UniProt Q09427).
T1 construct: expressed in transfected cells; host or cells: COS-1 cells (transient, pcDNA vector), membranes
Kind of experiment: biochemical. It is filed as binding. As for the experimental part: Competitive binding experiments were performed to characterize the affinity of the test compounds for the binding sites for sulfonylureas and KATP channel openers (KCOs) on hamster SUR1. To assess the affinity for the sulfonylurea site membranes from COS-cells transiently expressing hamster SUR1 were incubated in the presence of [^3H]glibenclamide with increasing concentrations of test compounds. […] Per curve 9-15 distinct concentrations were tested covering the relevant range. All measurements were repeated at least 5 times in independent experiments.
[^3H]glibenclamide (specific activity 51 Ci mmol^−1 was obtained from NEN (Dreieich, Germany). If suitable, stock solutions were prepared in dimethylsulfoxide with a final solvent concentration in the media below 1%.
SUR- or Kir6.x isoforms were used either subcloned in the pcDNA (hamster SUR1, mouse Kir6.2) or pCMV vector (rat SUR2A, SUR2B).
Rodent SUR-isoforms and KATP channels were transiently expressed in COS-1 cells as described in the literature. […]
The inhibition constant (Ki value) of the test substances was calculated from the respective IC50 value and was stated as the negative logarithmic value thereof (pKi).

rat SUR2, sequence (Q63563 1-1503 Y1205S limits assumed, form open): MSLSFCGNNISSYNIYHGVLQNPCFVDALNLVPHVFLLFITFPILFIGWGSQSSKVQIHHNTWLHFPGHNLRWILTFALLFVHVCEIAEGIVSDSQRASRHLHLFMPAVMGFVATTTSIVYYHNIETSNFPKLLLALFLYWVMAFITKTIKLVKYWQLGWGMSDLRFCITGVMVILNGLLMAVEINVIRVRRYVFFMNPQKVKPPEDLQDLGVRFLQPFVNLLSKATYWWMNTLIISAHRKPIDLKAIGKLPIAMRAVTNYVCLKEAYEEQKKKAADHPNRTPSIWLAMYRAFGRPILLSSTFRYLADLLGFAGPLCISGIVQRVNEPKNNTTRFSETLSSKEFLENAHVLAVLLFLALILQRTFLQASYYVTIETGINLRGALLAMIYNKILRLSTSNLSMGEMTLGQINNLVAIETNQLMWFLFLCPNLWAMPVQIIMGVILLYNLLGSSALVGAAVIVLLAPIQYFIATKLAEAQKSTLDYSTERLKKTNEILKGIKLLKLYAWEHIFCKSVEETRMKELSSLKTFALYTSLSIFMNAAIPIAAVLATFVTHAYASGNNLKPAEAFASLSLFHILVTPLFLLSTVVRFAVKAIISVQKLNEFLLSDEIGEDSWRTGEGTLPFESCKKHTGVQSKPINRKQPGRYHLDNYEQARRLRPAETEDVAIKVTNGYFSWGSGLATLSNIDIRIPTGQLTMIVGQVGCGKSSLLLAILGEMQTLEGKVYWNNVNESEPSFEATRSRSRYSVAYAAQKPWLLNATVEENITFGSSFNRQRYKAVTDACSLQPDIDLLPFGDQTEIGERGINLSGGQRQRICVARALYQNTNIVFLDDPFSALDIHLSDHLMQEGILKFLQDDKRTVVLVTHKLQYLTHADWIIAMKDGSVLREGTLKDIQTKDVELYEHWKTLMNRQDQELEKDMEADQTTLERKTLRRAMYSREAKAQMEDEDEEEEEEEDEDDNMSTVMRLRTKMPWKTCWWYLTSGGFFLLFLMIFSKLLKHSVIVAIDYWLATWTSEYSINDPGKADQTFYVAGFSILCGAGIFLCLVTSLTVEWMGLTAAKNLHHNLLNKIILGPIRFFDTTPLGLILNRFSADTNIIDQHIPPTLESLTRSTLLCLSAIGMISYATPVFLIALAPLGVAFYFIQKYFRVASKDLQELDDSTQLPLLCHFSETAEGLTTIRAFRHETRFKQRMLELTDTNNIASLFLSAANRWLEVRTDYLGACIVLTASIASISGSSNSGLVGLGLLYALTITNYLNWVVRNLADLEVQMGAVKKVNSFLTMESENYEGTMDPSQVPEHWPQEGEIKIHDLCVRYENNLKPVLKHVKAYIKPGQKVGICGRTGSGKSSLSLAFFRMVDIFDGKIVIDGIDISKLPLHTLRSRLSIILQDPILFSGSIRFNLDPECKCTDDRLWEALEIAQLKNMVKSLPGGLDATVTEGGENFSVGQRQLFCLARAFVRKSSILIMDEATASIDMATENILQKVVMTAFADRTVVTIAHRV
T1 sequence (Q09427 whole entry): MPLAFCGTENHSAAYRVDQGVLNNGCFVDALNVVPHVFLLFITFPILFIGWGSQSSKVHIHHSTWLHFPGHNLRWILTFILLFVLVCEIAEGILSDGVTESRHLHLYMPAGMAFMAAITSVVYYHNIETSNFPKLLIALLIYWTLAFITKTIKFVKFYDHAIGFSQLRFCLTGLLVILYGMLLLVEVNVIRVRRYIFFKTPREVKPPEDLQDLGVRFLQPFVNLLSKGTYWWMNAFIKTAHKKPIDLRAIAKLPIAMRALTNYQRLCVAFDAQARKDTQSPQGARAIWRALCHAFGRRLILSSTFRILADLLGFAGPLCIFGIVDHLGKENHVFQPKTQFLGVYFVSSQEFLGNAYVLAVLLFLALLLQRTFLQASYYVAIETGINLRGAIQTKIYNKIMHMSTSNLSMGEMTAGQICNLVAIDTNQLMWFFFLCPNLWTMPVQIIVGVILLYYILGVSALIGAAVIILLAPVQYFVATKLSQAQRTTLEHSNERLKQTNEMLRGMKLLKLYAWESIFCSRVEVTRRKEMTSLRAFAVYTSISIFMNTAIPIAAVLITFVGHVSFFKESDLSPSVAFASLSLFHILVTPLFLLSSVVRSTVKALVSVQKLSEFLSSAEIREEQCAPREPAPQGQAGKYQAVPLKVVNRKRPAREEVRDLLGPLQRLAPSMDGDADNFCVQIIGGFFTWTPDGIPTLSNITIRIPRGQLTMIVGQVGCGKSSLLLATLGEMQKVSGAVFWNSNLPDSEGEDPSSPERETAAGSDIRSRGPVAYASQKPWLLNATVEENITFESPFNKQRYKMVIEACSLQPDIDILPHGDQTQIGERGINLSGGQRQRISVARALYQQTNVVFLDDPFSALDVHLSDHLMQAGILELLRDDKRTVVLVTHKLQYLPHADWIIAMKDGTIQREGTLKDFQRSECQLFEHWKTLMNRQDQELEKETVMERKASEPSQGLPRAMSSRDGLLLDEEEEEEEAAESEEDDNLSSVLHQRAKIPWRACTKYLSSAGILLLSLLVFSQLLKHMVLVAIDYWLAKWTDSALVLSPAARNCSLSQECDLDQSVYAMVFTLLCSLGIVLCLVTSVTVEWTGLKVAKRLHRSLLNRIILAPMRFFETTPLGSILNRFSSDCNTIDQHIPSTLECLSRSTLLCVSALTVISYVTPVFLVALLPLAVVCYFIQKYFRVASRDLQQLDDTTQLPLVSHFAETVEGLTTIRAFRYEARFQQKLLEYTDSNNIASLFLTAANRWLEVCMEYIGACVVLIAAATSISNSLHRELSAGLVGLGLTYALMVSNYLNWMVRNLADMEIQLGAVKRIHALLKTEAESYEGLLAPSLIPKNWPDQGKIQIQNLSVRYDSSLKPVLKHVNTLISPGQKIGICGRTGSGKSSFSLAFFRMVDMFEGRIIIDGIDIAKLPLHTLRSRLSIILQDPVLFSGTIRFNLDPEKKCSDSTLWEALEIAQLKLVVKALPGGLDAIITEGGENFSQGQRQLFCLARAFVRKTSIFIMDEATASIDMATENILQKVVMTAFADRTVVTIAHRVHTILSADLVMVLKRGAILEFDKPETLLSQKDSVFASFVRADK

For `CNC(=NS(=O)(=O)N1CCCCC1)C1=NN(c2ccc(Cl)cc2)C(c2ccccc2)C1` (centres unmarked) [Piperdine-1-sulfonic acid [1-(4-chloro-phenyl)-5-phenyl-4,5-dihydro-1H-pyrazol-3-yl]-methylamino-methyleneamide], in experiment [1], the “% Inhibition 0-30” value is 84% and the “% Inhibition 30-60” value is recorded as 47%.
The like results for `CN/C(=N\S(=O)(=O)N(C)C)N1CC(c2cccc(F)c2)C(c2ccc(Cl)cc2)=N1` (centres unmarked) [N-{[3-(4-Chloro-phenyl)-4-(3-fluoro-phenyl)-4,5-dihydro-pyrazol-1-yl]-methylamino-methylene}-N,N-dimethyl-sulfonamide] were, in that order, 72% and 77%.
On to `CC1(NC2=Nc3cc(Cl)sc3S(=O)(=O)N2)CC1` [NN-414], for which the “times more potent than diazoxide to inhibit glucose-stimulated insulin release” value in experiment [2] is given as “more than 100 times”.
Consider `CCc1c(C(=O)NN2CCCCC2)nc(-c2ccccc2Cl)n1-c1ccc(Cl)cc1` [1-(4-Chloro-phenyl)-2-(2-chloro-phenyl)-5-ethyl-1H-imidazole-4-carboxylic acid piperidin-1-ylamide, reference compound], for which, in experiment [1], the “% Inhibition 0-30” value is recorded as 59% and the “% Inhibition 30-60” value came out at 45%.
Turning to `CON/C(=N\S(=O)(=O)c1ccc(Cl)cc1)N1C[C@H](c2cccc(F)c2)C(c2ccc(Cl)cc2)=N1` (stereo in doubt) [4-Chloro-N-{[3-(4-chloro-phenyl)-4-(3-fluoro-phenyl)-4,5-dihydro-pyrazol-1-yl]-methoxyamino-methylene}-benzenesulfonamide], in experiment [1], the “% Inhibition 0-30” value amounted to 90% and the “% Inhibition 30-60” value came to 95%.
For the compound `CN(C)CCNC(=NS(=O)(=O)N1CCCCC1)N1CC(c2ccccc2)C(c2ccc(Cl)cc2)=N1` (centres unmarked) [Piperidin-1-sulfonic acid [3-(4-chloro-phenyl)-4-phenyl-4,5-dihydro-pyrazol-1-yl]-(2-dimethylamino-ethyl-amino)-methyleneamide], in experiment [1], the “% Inhibition 0-30” value was 71% and the “% Inhibition 30-60” value is 64%.
For `CCCCC/C=C\C/C=C\C/C=C\C/C=C\CCCC(=O)OC(CO)CO` [2-AG, Icosa-5,8,11,14-tetraenoic acid 2-hydroxy-1-hydroxymethyl-ethyl ester], at rat SUR2, the “Affinity to SUR 2” value turned out to be 5.5.
On to `CN/C(=N\S(=O)(=O)N1CCOCC1)N1CC(c2ccccc2)C(c2ccc(Cl)cc2)=N1` (centres unmarked) [Mopholine-4-sulfonic acid [3-(4-chloro-phenyl)-4-phenyl-4,5-dihydro-pyrazol-1-yl]-methylamino-methyleneamide], for which, in experiment [1], the “% Inhibition 0-30” value is 83% and the “% Inhibition 30-60” value worked out at 91%.
For `CN/C(=N\S(=O)(=O)c1ccc(C(F)(F)F)cc1)N1CC(c2cccnc2)C(c2ccc(Cl)cc2)=N1` (centres unmarked) [N-{[3-(4-Chloro-phenyl)-4-pyridin-3-yl-4,5-dihydro-pyrazol-1-yl]-methylamino-methylene}-4-trifluoromethyl-benzenesulfonamide], in experiment [1], the “% Inhibition 0-30” value is listed as 58% and the “% Inhibition 30-60” value was 31%.
For the compound `Cc1c(C(=O)NN2CCCCC2)nn(-c2ccc(Cl)cc2Cl)c1-c1ccc(Cl)cc1` [Rimonabant, 5-(4-Chloro-phenyl)-1-(2,4-dichloro-phenyl)-4-methyl-1H-pyrazole-3-carboxylic acid piperidin-1-ylamide, reference compound], in experiment [1], the “% Inhibition 0-30” value amounted to 22% and the “% Inhibition 30-60” value is listed as 18%.
Regarding `CCCC(C)(C)c1ccc2c(c1)OC(C)(C)[C@@H]1CC=C(C)C[C@@H]21` [JW133, 3-(1,1-dimethyl-butyl)-6,6,9-trimethyl-6a,7,10,10a-tetrahydro-6H-benzo[c]chromene], the Ki at hamster SUR1 (hamster SUR1 transiently expressed in COS cells, read-out: Affinity to SUR 1 (converted)) was 1.26 µM. In addition, the “Affinity to SUR 2” value on rat SUR2 is on record as 3.6.
For `CC1=NS(=O)(=O)c2cc(Cl)ccc2N1` [Diazoxide, diazoxide], at hamster SUR1 (example in text on SUR binding, subunit not stated, read-out: pKi (converted)), the Ki was 158 µM.
In the case of `CSc1c(C(=O)NN2CCCCC2)nc(-c2ccccc2Cl)n1-c1ccc(Cl)cc1` [1-(4-Chloro-phenyl)-2-(2-chloro-phenyl)-5-methylsulfanyl-1H-imidazole-4-carboxylic acid piperidin-1-ylamide], in experiment [1], the “% Inhibition 0-30” value worked out at 56% and the “% Inhibition 30-60” value came out at 36%.
